Measured values: US20050208151A1, “Treatment of rheumatoid arthritis with FLIP antagonists” (Entelos, Inc., priority 2003, published 2005)

How the values were obtained:
[1] = system: RA patients' synovial macrophages; conditions: Fas agonist with vs without BIS, which blocked FLIP expression; cited from earlier work
[2] = system: MNC and macrophages from RA synovial fluid; test: uptake of FITC-labeled oligonucleotides by flow cytometry; format: cell-based, human; conditions: 10-20 μM, 24h, 70% ETOH fixed cells
Protocol: MNC and macrophages from RA synovial fluid are incubated for 24h with FITC-labeled antisense phosphorothioate oligodeoxynucleotides (10-20 μM) comprising the FLIP initiation codon (5′-[…]-3′) (SEQ ID NO: 2). A nonsense oligonucleotides is used as negative control (for example; 5′-TGGATCCGACATGTCAGA-3′) (SEQ ID NO: 3). Uptake of the FITC-labeled oligonucleotides are measured by flow cytometry on 70% ETOH fixed cells. A 80-90% transfection efficiency is expected. A general caspase inhibitor (e.g., 20 μM zVAD.fmk) is used as negative control in all apoptosis assays. As a positive control of macrophage apoptosis, the cells are treated with 50 μM of the phosphatidylinositol 3-kinase inhibitor LY294002 for 24 h.

rheumatoid arthritis = conditions: methotrexate treatment; level after 6 months therapy; cited from earlier work

CN(C)CCCn1cc(C2=C(c3c[nH]c4ccccc34)C(=O)NC2=O)c2ccccc21 [bisinodylmaleimide I]
increase in macrophage apoptosis [1]: ~9 fold

5′-GACTTCAGCAGACATCCTAC-3′ (DNA, all phosphorothioate, methylation of C not given here; FITC label; listed as Homo sapiens) [FITC-labeled antisense phosphorothioate oligodeoxynucleotides comprising the FLIP initiation codon]
transfection efficiency (uptake of FITC-labeled oligonucleotides) [2]: 80-90%

CN(Cc1cnc2nc(N)nc(N)c2n1)c1ccc(C(=O)N[C@@H](CCC(=O)O)C(=O)O)cc1 [Methotrexate, methotrexate]
decrease in rate of cartilage degradation (rheumatoid arthritis): approximately 17% | decrease in synovial cell density (rheumatoid arthritis): approximately 33%
